Results taken from ChEMBL document CHEMBL1155778, “The many roles for fluorine in medicinal chemistry” (J Med Chem, 2008).

What was measured:
[1] = Plasma clearance in rat at 2 mg/kg, po; format: ADME, organism-based; design: dose 2 mg/kg, route oral
[2] = Half life in rat plasma at 2 mg/kg, po; format: ADME, organism-based; design: dose 2 mg/kg, route oral
[3] = Cmax in rat at 2 mg/kg, po; format: ADME, organism-based; design: dose 2 mg/kg, route oral; conditions: in vivo
[4] = Oral bioavailability in rat; format: ADME, organism-based; conditions: in vivo
[5] = Dissociation constant, pKa of the compound; format: physicochemical
[6] = Plasma clearance in rat at 10 mg/kg, po; format: ADME, organism-based; design: dose 10 mg/kg, route oral
[7] = Half life in rat plasma at 10 mg/kg, po; format: ADME, organism-based; design: dose 10 mg/kg, route oral
[8] = Cmax in rat at 10 mg/kg, po; format: ADME, organism-based; design: dose 10 mg/kg, route oral; conditions: in vivo
[9] = Drug level in duct cannulated rat bile at 5 mg/kg, iv; format: ADME, organism-based; design: dose 5 mg/kg, route intravenous; conditions: in vivo, read-out: Drug uptake
Liver microsomes = test: Metabolic stability in human liver microsomes assessed as covalent protein binding per mg of protein; format: ADME, Microsome
[10] = molecular target: T1, Prostaglandin D2 receptor (Homo sapiens, UniProt Q13258)
T1 sequence (Q13258 whole entry): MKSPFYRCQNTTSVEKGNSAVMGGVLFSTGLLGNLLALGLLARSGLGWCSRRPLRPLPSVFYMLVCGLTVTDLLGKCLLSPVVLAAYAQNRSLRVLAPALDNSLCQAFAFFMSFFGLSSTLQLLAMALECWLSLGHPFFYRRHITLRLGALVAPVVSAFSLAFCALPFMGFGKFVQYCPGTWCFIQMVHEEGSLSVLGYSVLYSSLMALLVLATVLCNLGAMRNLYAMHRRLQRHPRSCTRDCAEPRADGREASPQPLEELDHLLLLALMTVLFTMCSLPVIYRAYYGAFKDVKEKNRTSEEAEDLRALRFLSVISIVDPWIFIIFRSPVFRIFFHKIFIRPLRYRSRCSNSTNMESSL

[11] = Metabolic stability in rat hepatocytes after 2 hrs
Cathepsin K = molecular target: T2, Cathepsin K (Homo sapiens, UniProt P43235); test: Inhibition of cathepsin K
T2 sequence (P43235 whole entry): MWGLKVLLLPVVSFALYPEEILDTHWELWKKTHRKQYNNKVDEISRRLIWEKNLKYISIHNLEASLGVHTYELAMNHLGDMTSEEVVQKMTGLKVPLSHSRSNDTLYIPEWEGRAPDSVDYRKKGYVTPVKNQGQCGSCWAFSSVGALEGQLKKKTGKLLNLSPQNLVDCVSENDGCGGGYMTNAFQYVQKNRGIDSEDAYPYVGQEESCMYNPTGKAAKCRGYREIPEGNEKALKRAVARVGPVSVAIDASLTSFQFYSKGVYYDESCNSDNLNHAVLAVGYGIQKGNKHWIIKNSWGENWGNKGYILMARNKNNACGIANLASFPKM

Cavia porcellus = test: Inhibition of resiniferatoxin-induced systemic vascular leakage in po dosed guinea pig […] model after 24 hrs; format: functional
Meriones unguiculatus = test: Inhibition of GR-73632-induced foot-tapping in iv dosed gerbils after 24 hrs; format: functional; conditions: read-out: ID50 (the source's name)
Cannabinoid receptor 1 = Cannabinoid receptor 1 (Homo sapiens, UniProt P21554); test: Displacement of [3H]CP-55940 from human CB1 receptor expressed in CHO cells; format: cell-based
Chain of Cannabinoid receptor 1 (P21554 whole entry): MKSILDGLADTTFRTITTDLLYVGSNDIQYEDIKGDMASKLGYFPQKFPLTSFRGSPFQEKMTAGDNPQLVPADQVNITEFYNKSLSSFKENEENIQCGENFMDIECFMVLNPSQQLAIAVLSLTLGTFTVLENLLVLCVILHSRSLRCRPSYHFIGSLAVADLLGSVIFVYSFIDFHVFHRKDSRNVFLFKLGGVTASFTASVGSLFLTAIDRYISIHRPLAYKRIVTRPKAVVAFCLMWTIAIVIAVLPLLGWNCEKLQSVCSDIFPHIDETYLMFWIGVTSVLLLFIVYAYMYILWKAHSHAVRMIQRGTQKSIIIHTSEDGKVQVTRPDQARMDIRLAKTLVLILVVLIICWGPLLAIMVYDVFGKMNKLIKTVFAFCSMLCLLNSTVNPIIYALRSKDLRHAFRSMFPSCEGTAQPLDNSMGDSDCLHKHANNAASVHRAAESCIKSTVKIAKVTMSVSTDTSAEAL

Prothrombin = Prothrombin (Homo sapiens, UniProt P00734); test: Inhibition of human thrombin
Substance-P receptor = Substance-P receptor (Homo sapiens, UniProt P25103); test: Inhibition of NK1 receptor
Chain of Substance-P receptor (P25103 whole entry): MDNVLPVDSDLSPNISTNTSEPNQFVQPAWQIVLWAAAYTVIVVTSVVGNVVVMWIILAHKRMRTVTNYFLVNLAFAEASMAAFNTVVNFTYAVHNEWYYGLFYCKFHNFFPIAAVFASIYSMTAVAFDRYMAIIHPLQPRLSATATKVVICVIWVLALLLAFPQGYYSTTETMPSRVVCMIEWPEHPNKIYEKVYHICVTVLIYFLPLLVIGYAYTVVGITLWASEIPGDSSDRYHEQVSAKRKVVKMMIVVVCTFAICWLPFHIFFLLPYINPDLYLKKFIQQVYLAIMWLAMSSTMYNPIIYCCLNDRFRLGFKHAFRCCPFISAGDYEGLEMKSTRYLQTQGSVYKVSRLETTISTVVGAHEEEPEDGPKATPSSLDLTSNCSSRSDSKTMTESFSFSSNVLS

[12] = Half life in human plasma; format: ADME, organism-based

C[C@H](NC(=O)C(C)(C)Oc1ccc(C(F)(F)F)cn1)[C@@H](Cc1ccc(Cl)cc1)c1cccc(C#N)c1 [TARANABANT]
CL/F [1]: 1.98 L/h/kg | half-life [2]: 2.7 h | Cmax [3]: 0.49 µM

C[C@H](NC(=O)C(C)(C)Oc1ccccn1)[C@@H](Cc1ccc(Cl)cc1)c1ccccc1
CL/F [1]: 1.5 L/h/kg | half-life [2]: 2.2 h | Cmax [3]: 0.44 µM | bioavailability [4]: 29%

Fc1cccnc1
pKa [5]: 2.97

CC(=O)c1cc(F)cc2c3c(n(Cc4ccc(Cl)cc4)c12)C(CC(=O)O)CC3 (configuration not stated)
bioavailability [4]: 52% | CL/F [6]: 0.114 L/h/kg | half-life [7]: 4 h | Cmax [8]: 21 µM | concentration [9]: 81 µM | Activity (Liver microsomes): 46 pmol/h | Ki [10]: 1.1 nM | remaining at 2 h [11]: 35%

Fc1ccc2ncccc2c1
pKa [5]: 4

N[C@@H](CC(=O)N1CCn2c(nnc2C(F)(F)F)C1)Cc1cc(F)c(F)cc1F [SITAGLIPTIN]
CL/F [1]: 3.6 L/h/kg | half-life [2]: 1.7 h

N[C@@H](CC(=O)N1CCn2c(nnc2C(F)(F)F)C1)Cc1cc(F)ccc1F
CL/F [1]: 2.58 L/h/kg | half-life [2]: 1.6 h

CC(C)C[C@H](N[C@@H](c1ccc(-c2ccc(N3CCNCC3)cc2)cc1)C(F)(F)F)C(=O)NCC#N
IC50 (Cathepsin K): ≤ 0.005 nM

Oc1cccc(C(F)(F)F)c1
pKa [5]: 8.9

O=c1[nH]nc(CN2CCO[C@H](OCc3cc(C(F)(F)F)cc(C(F)(F)F)c3)[C@@H]2c2ccc(F)cc2)[nH]1
ID90 (Cavia porcellus): 2.3 mg/kg | ED50 (Meriones unguiculatus): 1.24 mg/kg

CS(=O)(=O)c1cc(F)cc2c3c(n(Cc4ccc(Cl)cc4)c12)C(CC(=O)O)CC3 (stereo not drawn) [DIASTEREOMER 2]
bioavailability [4]: 79% | CL/F [6]: 0.144 L/h/kg | half-life [7]: 7 h | Cmax [8]: 39 µM | concentration [9]: 103 µM | remaining at 2 h [11]: 32%

O=C(O)c1cccc(F)c1
pKa [5]: 3.87

O=c1[nH]nc(CN2CCO[C@H](OCc3cc(C(F)(F)F)cc(C(F)(F)F)c3)[C@@H]2c2ccccc2)[nH]1
ID90 (Cavia porcellus): 5.4 mg/kg | ED50 (Meriones unguiculatus): 2.88 mg/kg

Oc1ccccc1F
pKa [5]: 8.73

CC(=O)c1cc(S(C)(=O)=O)cc2c3c(n(Cc4ccc(Cl)cc4)c12)[C@@H](CC(=O)O)CC3
bioavailability [4]: 100% | CL/F [6]: 0.84 L/h/kg | half-life [7]: 1.4 h | concentration [9]: 1100 µM | Activity (Liver microsomes): 18 pmol/h | remaining at 2 h [11]: 93%

O=C(O)c1cccc(C(F)(F)F)c1
pKa [5]: 3.79

Fc1ccccn1
pKa [5]: -0.44

OCC(F)(F)F [TRIFLUOROETHANOL]
pKa [5]: 12.4

N[C@@H](CC(=O)N1CCn2cnnc2C1)Cc1cc(F)c(F)cc1F
CL/F [1]: 2.4 L/h/kg | half-life [2]: 1 h

Nc1ccc(F)cc1
pKa [5]: 4.65

C[C@H](NC(=O)C(C)(C)Oc1ccccc1)[C@@H](Cc1ccc(Cl)cc1)c1ccccc1
CL/F [1]: 1.98 L/h/kg | half-life [2]: 2.8 h | Cmax [3]: 0.18 µM | bioavailability [4]: 9%

O=C(O)C(F)F
pKa [5]: 1.24

C[C@H](NC(=O)C(C)(C)Oc1ccc(C(F)(F)F)cn1)[C@@H](Cc1ccc(Cl)cc1)c1ccccc1
CL/F [1]: 2.1 L/h/kg | half-life [2]: 2.2 h | Cmax [3]: 1.2 µM | bioavailability [4]: 100% | IC50 (Cannabinoid receptor 1): 0.54 nM

N[C@@H](CC(=O)N1CCn2c(nnc2C(F)(F)F)C1)Cc1ccc(F)c(F)c1
CL/F [1]: 3.06 L/h/kg | half-life [2]: 1.8 h

Nc1ccccc1F
pKa [5]: 3.2

Fc1cnc2ccccc2c1
pKa [5]: 2.36

Oc1cccc(F)c1
pKa [5]: 9.29

O=C(O)CC(F)(F)F
pKa [5]: 3.06

N[C@@H](CC(=O)N1CCn2c(nnc2C(F)(F)C(F)(F)F)C1)Cc1cc(F)c(F)cc1F
CL/F [1]: 3.48 L/h/kg | half-life [2]: 2.3 h

Cc1nnn[nH]1
pKa [5]: 4.9

Oc1ccc(F)cc1
pKa [5]: 9.89

N=C(N)c1ccc([C@H]2C3C(=O)N(Cc4ccccc4F)C(=O)C3C3CCCN32)cc1 (some centres not stated)
Ki (Prothrombin): 500 nM

O=C(O)c1ccc(F)cc1
pKa [5]: 4.14

O=C(O)c1ccccc1F
pKa [5]: 3.27

C[C@H](NC(=O)C(C)(C)Oc1cc(F)cc(F)c1)[C@@H](Cc1ccc(Cl)cc1)c1ccccc1
CL/F [1]: 2.1 L/h/kg | half-life [2]: 2.4 h | Cmax [3]: 0.3 µM | IC50 (Cannabinoid receptor 1): 1.47 nM

N#CCNC(=O)C1(N[C@@H](c2ccc(-c3ccc(N4CCNCC4)cc3)cc2)C(F)(F)F)CCCCC1
IC50 (Cathepsin K): 5 nM

C[C@@H](O[C@H]1OCCN(Cc2n[nH]c(=O)[nH]2)[C@H]1c1ccccc1)c1cc(C(F)(F)F)cc(C(F)(F)F)c1
IC50 (Substance-P receptor): 0.09 nM | ID90 (Cavia porcellus): 2.3 mg/kg | ED50 (Meriones unguiculatus): 1.11 mg/kg

Nc1cccc(C(F)(F)F)c1
pKa [5]: 3.49

Fc1ccc2cccnc2c1
pKa [5]: 4.04

Fc1cccc2cccnc12
pKa [5]: 3.1

FC(F)(F)c1nnn[nH]1
pKa [5]: 1.7

N#CCNC(=O)C1(NC(=O)c2ccc(-c3ccc(N4CCNCC4)cc3)cc2)CCCCC1
IC50 (Cathepsin K): 0.4 nM

CC(C)C[C@H](NC(=O)c1ccc(-c2ccc(N3CCNCC3)cc2)cc1)C(=O)NCC#N
IC50 (Cathepsin K): 0.015 nM

Nc1ccc(C(F)(F)F)cc1
pKa [5]: 2.57

N=C(N)c1ccc([C@H]2C3C(=O)N(Cc4cccc(F)c4)C(=O)C3C3CCCN32)cc1 (some centres not stated)
Ki (Prothrombin): 360 nM

Fc1cccc2ncccc12
pKa [5]: 3.68

CCc1nnc2n1CCN(C(=O)C[C@H](N)Cc1cc(F)c(F)cc1F)C2
CL/F [1]: 4.2 L/h/kg | half-life [2]: 1.7 h

C[C@@H](O[C@H]1OCCN(Cc2n[nH]c(=O)[nH]2)[C@H]1c1ccc(F)cc1)c1cc(C(F)(F)F)cc(C(F)(F)F)c1 [APREPITANT]
ID90 (Cavia porcellus): 1.8 mg/kg | ED50 (Meriones unguiculatus): 0.33 mg/kg

Cc1ccc(-c2cc(C(F)(F)F)nn2-c2ccc(S(N)(=O)=O)cc2)cc1 [CELECOXIB]
half-life [12]: 11.2 h
